{"source": "patent US20200278355A1", "about": "“CONJUGATED PROTEINS AND USES THEREOF” (THE SCRIPPS RESEARCH INSTITUTE, priority 2017, published 2020)", "key": {"[1]": {"target": "T1, TXNDC12 (Homo sapiens, UniProt O95881)", "T1 construct": "endogenous in cells; host or cells: H460", "T1 sequence (O95881 27-172)": "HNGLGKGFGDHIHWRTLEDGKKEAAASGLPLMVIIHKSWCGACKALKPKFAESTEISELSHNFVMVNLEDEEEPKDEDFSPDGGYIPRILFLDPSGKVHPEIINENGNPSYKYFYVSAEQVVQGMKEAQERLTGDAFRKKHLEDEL", "assay": "ABPP-SILAC BPK-29yne competition in H460 cells: TXNDC12", "type": "cell-based", "details": "20 μM", "protocol": "(§1) Isotopically labeled H460 cell lines were generated as described above. Light and heavy cells were treated with compounds (20 μM) or DMSO, respectively, for 3 h, followed by labeling with the BPK-29yne (5 μM) for 30 min. Cells were washed once ice-cold PBS and lysed in 1% Triton 100-X dissolved in PBS with protease inhibitors (Sigma) by sonication. Lysate was adjusted to 1.5 mg ml^−1 in 500 μL. Samples were conjugated by CuAAC to Biotin-PEG4-azide (5 μL of 10 mM stocks in DMSO, final concentration=100 μM). CuAAC “click” mix contained TCEP, TBTA ligand and CuSO4 as detailed for isoTOP-ABPP sample preparation. Samples were further processed as detailed in: isoTOP-ABPP streptavidin enrichment and isoTOP-ABPP trypsin TEV digestion with the following exception: after overnight incubation at 37° C. with trypsin, tryptic digests were separated from the beads with Micro Bio-Spin columns (Bio-Rad) by centrifugation (1,000×g, 1 min). Beads were rinsed once with water (200 μL) and combined with tryptic digests. […]\n(§2) The MS2 spectra data were extracted and searched using RAW Convertor and ProLuCID algorithm as described in isoTOP-ABPP peptide and protein quantification. […] Ratios of heavy/light (DMSO/test compound) peaks were calculated using in-house CIMAGE software. […] The mean R values and standard deviation for multiple biological experiments were calculated from the average ratios from each replicate. […]"}, "[2]": {"target": "T2, TXNRD1 (Homo sapiens, UniProt Q16881)", "T2 construct": "endogenous in cells; host or cells: H460", "T2 sequence (Q16881 whole entry)": "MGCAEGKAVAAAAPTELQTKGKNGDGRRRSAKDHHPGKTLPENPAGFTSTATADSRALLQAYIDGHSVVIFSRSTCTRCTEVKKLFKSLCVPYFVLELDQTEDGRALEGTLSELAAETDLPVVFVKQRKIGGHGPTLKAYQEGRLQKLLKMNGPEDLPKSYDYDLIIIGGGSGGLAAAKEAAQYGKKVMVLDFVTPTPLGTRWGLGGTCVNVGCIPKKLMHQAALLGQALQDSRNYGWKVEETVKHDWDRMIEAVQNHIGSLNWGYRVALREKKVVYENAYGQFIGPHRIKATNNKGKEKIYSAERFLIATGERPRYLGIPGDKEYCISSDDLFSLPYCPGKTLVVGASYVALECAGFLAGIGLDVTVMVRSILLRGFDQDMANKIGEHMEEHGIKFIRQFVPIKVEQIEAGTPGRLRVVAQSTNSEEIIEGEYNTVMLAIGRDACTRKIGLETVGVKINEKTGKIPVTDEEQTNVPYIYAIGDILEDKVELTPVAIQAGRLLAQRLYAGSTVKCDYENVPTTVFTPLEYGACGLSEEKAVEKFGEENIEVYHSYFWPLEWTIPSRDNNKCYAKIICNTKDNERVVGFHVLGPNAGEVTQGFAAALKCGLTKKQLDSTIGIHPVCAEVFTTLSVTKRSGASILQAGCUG", "assay": "ABPP-SILAC BPK-29yne competition in H460 cells: TXNRD1", "type": "cell-based", "details": "20 μM", "protocol": "as §1, §2"}, "[3]": {"target": "T3, SELO (Homo sapiens, UniProt Q9BVL4)", "T3 construct": "Isotopically labeled H460 cell lines were generated as described above; endogenous in cells; host or cells: H460 (SILAC-labelled)", "T3 sequence (Q9BVL4 116-669)": "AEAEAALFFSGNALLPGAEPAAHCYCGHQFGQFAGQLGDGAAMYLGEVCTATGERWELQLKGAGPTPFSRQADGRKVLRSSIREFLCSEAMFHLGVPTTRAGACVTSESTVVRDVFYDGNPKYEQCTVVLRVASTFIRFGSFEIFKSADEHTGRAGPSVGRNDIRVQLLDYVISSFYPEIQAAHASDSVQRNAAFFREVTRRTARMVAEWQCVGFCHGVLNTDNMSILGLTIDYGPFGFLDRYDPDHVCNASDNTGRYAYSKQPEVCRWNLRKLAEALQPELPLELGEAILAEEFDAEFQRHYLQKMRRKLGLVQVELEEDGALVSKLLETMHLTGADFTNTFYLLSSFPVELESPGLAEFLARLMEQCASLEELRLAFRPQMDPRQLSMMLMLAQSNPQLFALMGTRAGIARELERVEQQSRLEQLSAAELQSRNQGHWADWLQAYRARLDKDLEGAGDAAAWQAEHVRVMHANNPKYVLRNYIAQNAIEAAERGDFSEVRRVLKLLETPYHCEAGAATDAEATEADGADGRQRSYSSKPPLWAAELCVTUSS", "assay": "ABPP-SILAC BPK-29yne competition in H460 cells: SELO", "type": "cell-based", "details": "20 μM", "protocol": "as §1, §2"}, "[4]": {"target": "T4, FAM213A (Homo sapiens, UniProt Q9BRX8)", "T4 construct": "Isotopically labeled H460 cell lines were generated as described above; endogenous in cells; host or cells: H460 (SILAC-labelled)", "T4 sequence (Q9BRX8 whole entry)": "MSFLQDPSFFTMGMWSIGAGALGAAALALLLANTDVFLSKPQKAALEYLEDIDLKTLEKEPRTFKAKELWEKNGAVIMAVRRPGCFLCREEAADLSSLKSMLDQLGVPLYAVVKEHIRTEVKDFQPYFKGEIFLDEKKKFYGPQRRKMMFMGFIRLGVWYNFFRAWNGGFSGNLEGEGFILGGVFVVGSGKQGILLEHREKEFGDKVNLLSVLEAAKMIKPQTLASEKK", "assay": "ABPP-SILAC BPK-29yne competition in H460 cells: FAM213A", "type": "cell-based", "details": "20 μM", "protocol": "as §1, §2"}, "[5]": {"system": "protein targets of BPK-29 in NSCLC cells (H460)", "assay": "ABPP-SILAC competition of BPK-29yne labeling in H460 cells, proteome-wide", "type": "cell-based, human", "details": "beyond targets mapped by isoTOP-ABPP", "protocol": "as §1, §2"}, "[6]": {"target": "T5, NUDT8 (Homo sapiens, UniProt Q8WV74)", "T5 construct": "H460 cells or H460 cells expressing luciferase in a 10 cm plate were incubated with indicated compounds; endogenous in cells; host or cells: H460", "T5 sequence (Q8WV74 whole entry)": "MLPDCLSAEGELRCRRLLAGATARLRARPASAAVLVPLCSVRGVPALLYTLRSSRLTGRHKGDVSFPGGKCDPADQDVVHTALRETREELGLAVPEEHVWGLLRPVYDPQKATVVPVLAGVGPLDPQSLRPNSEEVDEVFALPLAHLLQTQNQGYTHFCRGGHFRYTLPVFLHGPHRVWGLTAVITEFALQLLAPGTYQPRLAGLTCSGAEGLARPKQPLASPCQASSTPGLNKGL", "assay": "ABPP-SILAC BPK-29yne competition in H460 cells: NUDT8", "type": "cell-based", "details": "20 μM", "protocol": "as §1, §2"}}, "data": [{"molecule": "O=C(c1ccc(N2CCOCC2)cc1)N1CCCC(N(Cc2ccccc2)C(=O)CCl)CC1", "note": "(stereo not drawn) [BPK-29, N-benzyl-2-chloro-N-(1-(4-morpholinobenzoyl)azepan-4-yl)acetamide]", "values": [{"measurement": "BPK-29-competed BPK-29yne analysis", "setting": "[1]", "result": "Yes (Competed defined as showing R value ≥ 2.5 at 20 μM of test compound)"}, {"measurement": "BPK-29-competed BPK-29yne analysis", "setting": "[2]", "result": "Yes (Competed defined as showing R value ≥ 2.5 at 20 μM of test compound)"}, {"measurement": "BPK-29-competed BPK-29yne analysis", "setting": "[3]", "result": "Yes (Competed defined as showing R value ≥ 2.5 at 20 μM of test compound)"}, {"measurement": "BPK-29-competed BPK-29yne analysis", "setting": "[4]", "result": "Yes (Competed defined as showing R value ≥ 2.5 at 20 μM of test compound)"}, {"measurement": "further proteins engaged, found with the BPK-29yne probe", "setting": "[5]", "result": "seven"}, {"measurement": "BPK-29-competed BPK-29yne analysis", "setting": "[6]", "result": "Yes (Competed defined as showing R value ≥ 2.5 at 20 μM of test compound)"}]}]}
